Reference: article PMC3510438, “The transmembrane tyrosines Y56, Y91 and Y167 play important roles in determining the affinity and transport rate of the rabbit proton-coupled peptide transporter PepT1” (The International Journal of Biochemistry & Cell Biology, 2009)
Numbering of substitutions follows the chain as printed.

How the values were obtained:
Experiment in all cases: Uptake of tracer [3H]-D-Phe-L-Gln into Xenopus oocytes
Format in all cases: cell-based, rabbit
Y167R-rPepT1 = molecular target: T1, Y167R-rPepT1 (Oryctolagus cuniculus, UniProt P36836, Y167R); settings: both pHout 5.5 and 7.4
T1 construct: expressed in transfected cells; host or cells: Xenopus laevis oocytes injected with cRNA
T1 sequence (P36836 1-707 Y167R): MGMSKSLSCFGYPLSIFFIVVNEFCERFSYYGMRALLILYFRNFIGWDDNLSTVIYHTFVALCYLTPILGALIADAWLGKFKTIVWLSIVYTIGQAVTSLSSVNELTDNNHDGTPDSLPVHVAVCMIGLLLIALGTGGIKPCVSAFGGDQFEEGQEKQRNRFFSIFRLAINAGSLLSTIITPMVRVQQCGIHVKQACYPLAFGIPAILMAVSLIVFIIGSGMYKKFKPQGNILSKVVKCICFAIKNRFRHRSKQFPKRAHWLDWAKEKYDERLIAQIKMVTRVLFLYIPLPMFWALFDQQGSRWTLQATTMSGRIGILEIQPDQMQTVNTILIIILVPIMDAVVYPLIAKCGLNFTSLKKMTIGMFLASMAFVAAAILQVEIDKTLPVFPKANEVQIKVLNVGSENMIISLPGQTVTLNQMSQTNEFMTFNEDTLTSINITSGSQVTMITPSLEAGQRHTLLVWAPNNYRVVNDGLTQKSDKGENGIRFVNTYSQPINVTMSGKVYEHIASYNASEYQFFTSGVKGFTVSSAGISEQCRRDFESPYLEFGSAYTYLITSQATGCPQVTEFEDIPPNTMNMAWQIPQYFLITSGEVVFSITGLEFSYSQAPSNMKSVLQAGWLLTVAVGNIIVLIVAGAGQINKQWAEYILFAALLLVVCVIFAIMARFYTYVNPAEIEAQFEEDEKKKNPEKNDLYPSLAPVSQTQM
Protocol: (§1) rPepT1 constructs were linearised with XbaI (New England Biolabs, UK) and cRNA generated by in vitro transcription (T7 mMessage mMachine, Ambion, Cambridgeshire, UK). Xenopus laevis oocytes were obtained under MS222 anaesthesia (0.2%, w/v) in accordance with the UK Animals (Scientific Procedures) Act, 1986, and maintained at 18 °C in modified Barth's medium (88 mM NaCl, 1 mM KCl, 0.82 mM MgSO4, 2.4 mM NaHCO3, 0.42 mM CaCl2, 10 mM Hepes, 5 mM sodium pyruvate, 50 μg ml^−1 gentamicin (Fluka, Poole, UK), adjusted to pH 7.6 with 1 M NaOH). Transport measurements were performed at least 72 h after micro-injection of oocytes with 27nl cRNA (1 μg/μl), with medium changed daily.
(§2) Uptake of [^3H]-D-Phe-L-Gln (17.4 Ci/mmole, custom synthesised, Cambridge Research Biochemicals, Stockton-on-Tees, UK) was performed as previously described ([Meredith, 2004]). Briefly, 5 oocytes were incubated in 100 μl of uptake medium (95 mM NaCl, 2 mM KCl, 1 mM CaCl2, 0.42 mM MgCl2, 10 mM Tris/Hepes pH 7.4 or Tris/Mes pH 5.5) with tracer (0.4 μM) [^3H]-D-Phe-L-Gln. After incubation, the oocytes were washed sequentially five times in 1 ml of ice-cold 120 mM NaCl solution, lysed individually with 100 μl 2% (w/v) SDS and liquid scintillation counted. As a control non-injected oocytes were also incubated in uptake medium with D-Phe-L-Gln as above.

Y167Q-rPepT1 = molecular target: T2, Y167Q-rPepT1 (Oryctolagus cuniculus, UniProt P36836, Y167Q); settings: both pHout 5.5 and 7.4
T2 construct: expressed in transfected cells; host or cells: Xenopus laevis oocytes injected with cRNA
T2 sequence (P36836 1-707 Y167Q): T1 sequence (P36836 1-707 Y167R) with R167Q
Protocol: as §1, §2

Y167F-rPepT1 = molecular target: T3, Y167F-rPepT1 (Oryctolagus cuniculus, UniProt P36836, Y167F)
T3 construct: expressed in transfected cells; host or cells: Xenopus laevis oocytes injected with cRNA
T3 sequence (P36836 1-707 Y167F): T1 sequence (P36836 1-707 Y167R) with R167F
Protocol: as §1, §2

With [^3H]-D-Phe-L-Gln the “reduction of uptake compared to the wild-type” value (“reduction of uptake” for short) (Y167R-rPepT1) was > 90%, the “reduction of uptake” value (Y167Q-rPepT1) was > 90% and the “reduction of uptake” value (Y167F-rPepT1; both pHout 5.5 and 7.4) was > 90%. For the same substance, the “decrease in rate of uptake compared to the wild-type” value (Y167F-rPepT1; pHout 5.5, 1 h) was ~90%.
